In US20150359668A1, “LIGHT DELIVERY DEVICE AND RELATED COMPOSITIONS, METHODS AND SYSTEMS” (CALIFORNIA INSTITUTE OF TECHNOLOGY, priority 2011, published 2015):
Values joined by “and” are separate entries in the source; they are usually repeats but may differ in a detail not shown here. Equal values may be shown once. Read-outs that look alike come from different tables or passages of the source. One block for each compound: values may come before it.

What was measured:
[1] = reaction with singlet oxygen; cited from earlier work
cornea [2] = test: drug diffusion into the cornea of intact eyes (extraction assay, diffusion model fit); conditions: for diffusivity, D / partition coefficient, k: from DPBS
Protocol: Siena for Medical Science supplied porcine eyes from 3-4 month old swine. Eyes were stored in ocular balanced saline solution on ice until use within 48 hours post mortem. […] The epithelial cell layer was removed by scraping with a scalpel. […] The drug solution containing the eye was gently agitated using a rocker for a specified “drug contact time” (tc,cornea ranging from 0 to 4 hours). After the drug contact time, the eye was removed from the drug solution, and excess solution on the cornea was dabbed away with a Kimwipe. The eye was dissected using a scalpel blade and a pair of scissors to cut around the corneoscleral limbus to separate out the cornea. The tissue section was placed onto a trephine punch to cut out a 9.5-mm diameter corneal cross-section.
(§1) Quantitative assay of the amount of drug delivered—Experiments were performed for five drug contact times (four samples each): for the cornea, tc,cornea=0.25, 0.5, 1, 2, and 4 hrs, and for the sclera, tc,sclera=0.5, 2, 4, 7.5, and 120 hrs. Each experiment was repeated four times. For each experiment, the 9.5-mm diameter tissue cross-section obtained as described above was placed into a 50 mL centrifuge tube and immersed in 50 mL of extractant (doubled-distilled water for cornea or DPBS for sclera) then placed on a rocker to extract the drug molecules (FIG. 40). […] After a first extraction time te,1 of 8 hours, the tissue specimen was then transferred into another 50 mL of fresh extractant and the extract was retained for analysis.
(§2) The concentration of the drug in the extract was determined using fluorimetry. […] The fluorescence of each extract was measured and concentration was determined based on calibration curves prepared for each compound using a series of solutions with known concentrations. The extraction process was repeated using successively longer extraction times until there was no detectable fluorescence in the supernatant.
(§3) Porcine eyes closely resemble a sphere with diameter ˜25 mm. The cornea and sclera are the targeted tissues and both have thicknesses that are on the order of 1 mm. Since these tissue thicknesses are less than a tenth of the diameter of the eye, they are modeled as semi-infinite slabs. Each tissue is approximated as a uniform material. Fick's diffusion equation is given by
(§4) where C(z,t) is the drug concentration inside the tissue, t is the time since the exterior surface of the tissue was placed in contact with the drug solution, z is the distance into the tissue from its exterior surface, and D is the diffusion coefficient. […] For short contact times, the concentration falls to zero before the profile reaches the endothelium. For longer contact times, the boundary condition that the concentration falls to zero far into the system is still used as a first approximation (neglecting the change in material properties at the endothelium and neglects different transport processes in the aqueous or vitreous).
(§5) where area represents the cross-sectional area of the tissue sample and L is the thickness of the tissue sample. At long drug contact time, the predicted concentration changes very slowly and approaches a value governed by the partition coefficient.
(§6) with i being the individual data point and N being the total data points used for the fit. Data fitting was performed by writing a program in MATLAB software.

sclera [3] = test: drug diffusion into the sclera of intact eyes (extraction assay, diffusion model fit); conditions: for diffusivity, D / partition coefficient, k: from DPBS
Source text: Orbital tissues were removed with scissors to expose the sclera. […] After the contact time, the eye was removed from the drug solution, and excess solution on the sclera was dabbed away with a Kimwipe. The eye was dissected using a scalpel blade and a pair of scissors to obtain a posterior scleral section on the temporal side near the optic nerve. The tissue section was placed onto a trephine punch to cut out a 9.5-mm diameter cross-section.
as §1, §2, §3, §4, §5, §6

cornea [4] = test: model of photodynamic collagen cross-linking profile in the cornea
Source text: Design of experiments—The collagen gel photorheological technique discussed in Examples 29-31 was used to gather collagen cross-linking rate data in order to model the extent and distribution of cross-link formation in the tissue. Collagen gel samples have uniform drug concentration profiles based on the preparation technique developed Examples 29-31. The protocols for collagen gel preparation and photorheological measurement are described in the Methods Section of Example 29-31. The pairs of drug concentrations and collagen gel thicknesses were selected such that the intensity profile is approximately uniform throughout the sample. Based on light intensity calculations, this is achieved when the ratio of light penetration depth over sample thickness is 1.2. The light intensity profile in the sample is given by:
Design of the model—Photodynamic collagen cross-linking depends on both the local photosensitizer concentration and the light intensity which are functions of treatment parameters: drug concentration, contact time (duration the drug is in contact with the tissue), delay time (period between end of contact time and beginning of irradiation), and irradiation time (FIGS. 46A-46C). […] The concentration profile can be calculated using Fick's diffusion equation. The light intensity also varies along the tissue as determined by Beer's law. […]

[5] = physiological pH; cited from earlier work
cell viability = conditions: cited from earlier work
collagen gel = collagen gel photorheology: storage modulus during photo-activated cross-linking; conditions: for cross-linking rate as % of the rate without singlet oxygen quenchers: in air; for modulus change during the last 10 minutes, no irradiation / ΔG′ over the 30-minute period without irradiation: 0.02% eosin Y or 0.1% riboflavin, 0 mW/cm^2; for modulus change during the 10 minutes after cessation of irradiation / change of storage modulus ΔG′ over the 30-minute irradiation: 0.02% eosin Y, 0.1% riboflavin; for modulus change during the 10 minutes after cessation of irradiation: 6 mW/cm^2, 3 mW/cm^2; for change of storage modulus ΔG′ over the 30-minute irradiation: 6 mW/cm^2 at 530±15 nm, 3 mW/cm^2 at 370±12 nm
guinea pig eyes = test: guinea pig form-deprivation myopia and normal ocular growth after subconjunctival treatment; conditions: Set A, eyes enucleated immediately after treatment
sclera [6] = conditions: subconjunctival delivery; cited from earlier work
cornea [7] = conditions: fluorescein value used for riboflavin in earlier studies; cited from earlier work
sclera [8] = conditions: cited from earlier work
cornea [9] = conditions: sodium azide added to the riboflavin treatment solution; cited from earlier work
keratocytes = conditions: human, in vivo; cited from earlier work
posterior globe = conditions: rabbit, in vivo; cited from earlier work
[10] = in the absence of oxygen (in argon), 30-minute irradiation
[11] = in the presence of oxygen (in air), 30-minute irradiation, 0.05% riboflavin 370 nm or 0.02% eosin Y 530 nm

Compound: N[C@@H](Cc1c[nH]c2ccccc12)C(=O)O [Tryptophan]
k1O2 × 10^−7 M^−1s^−1 [1]: 1.3-3 × 10^−7 M^−1s^−1

Compound: O=C([O-])c1ccccc1-c1c2cc(Br)c(=O)c(Br)c-2oc2c(Br)c([O-])c(Br)cc12.[Na+].[Na+] [Eosin Y, eosin Y]
drug contact time at which delivered amount levels off (cornea [2]; cornea): 2 h
diffusivity, D (cornea [2]; cornea): 62 μm^2/s and 62 ± 22 μm^2/s
partition coefficient, k (cornea [2]; cornea): 4.3±0.7 and 4.3
diffusivity, D (cornea [2]; cornea, listed as eosin Y): 62 μm^2/s
partition coefficient, k (cornea [2]; cornea, listed as eosin Y): 4.3
diffusion coefficient without the binding effect, Dab (cornea [2]; cornea, Dab=kD): 267 μm^2/s
calculated permeability (cornea [2]; through porcine cornea): 0.31 μm/s
permeability (sclera [3]; sclera): 0.099 μm/s
time for the concentration to level off (sclera [3]; sclera): approximately 30 hours
drug in second extract, % of the first extract (sclera [3]; sclera, 2 hours contact time): approximately 20%
diffusivity, D (sclera [3]; sclera): 6.2 ± 1.7 μm^2/s and 6.2 μm^2/s
partition coefficient, k (sclera [3]; sclera): 13.0±1.1 and 13.0
diffusivity, D (sclera [3]; sclera, listed as eosin Y): 6.2 μm^2/s
partition coefficient, k (sclera [3]; sclera, listed as eosin Y): 13
diffusion coefficient without the binding effect, Dab (sclera [3]; sclera, Dab=kD): 81 μm^2/s
characteristic time to penetrate the entire cornea, L^2/(4*D) (cornea [4]): ~15 min
ionization in solution [5]: negatively ionized
concentration with excellent cell viability (up to) (cell viability): up to 20 mM
cross-linking rate as % of the rate without singlet oxygen quenchers (collagen gel; 10 mM ascorbic acid): 43±23%
modulus change during the last 10 minutes, no irradiation (collagen gel): 59±34 Pa
ΔG′ over the 30-minute period without irradiation (collagen gel): −23±76 Pa
modulus change during the 10 minutes after cessation of irradiation (collagen gel): 61±136 Pa
change of storage modulus ΔG′ over the 30-minute irradiation (collagen gel): 793±118 Pa
cross-linking rate as % of the rate without singlet oxygen quenchers (collagen gel; 20 mM ascorbic acid): 23±10%
cross-linking rate as % of the rate without singlet oxygen quenchers (collagen gel; 100 mM ascorbic acid): −7±6%
cross-linking rate as % of the rate without singlet oxygen quenchers (collagen gel; 100 mM sodium azide): 34±8%
cross-linking rate in the absence of oxygen (reduced to) (collagen gel; argon vs air): 12%
rate of change in storage modulus, Ġ′ (increased by) (collagen gel; [10]): 3.4±2.3 Pa/min
rate of change in storage modulus, Ġ′ (increased by) (collagen gel; [11]): 28.4±5.1 Pa/min
distribution in the sclera after subconjunctival injection (guinea pig eyes): pink staining from Eosin Y over the entire sclera

Compound: CO[C@@]12[C@H](COC(N)=O)C3=C(C(=O)C(C)=C(N)C3=O)N1C[C@@H]1N[C@@H]12 [mitomycin-C]
fraction of drug present on the surface of sponges able to diffuse into the sclera (sclera [6]): ~5%

Compound: N[C@@H](CS)C(=O)O [Cystei e, Cysteine]
k1O2 × 10^−7 M^−1s^−1 [1]: 0.89 × 10^−7 M^−1s^−1

Compound: O=C1OC2(c3ccc(O)cc3Oc3cc(O)ccc32)c2ccccc21 [fluorescein]
diffusion coefficient, D (cornea [7]): 65 μm^2/s

Compound: N[C@@H](Cc1c[nH]cn1)C(=O)O [Histidine]
k1O2 × 10^−7 M^−1s^−1 [1]: 3.2-3.4 × 10^−7 M^−1s^−1

Compound: sulforhodamine
partition coefficient in the sclera (sclera [8]): 13.6

Compound: N[C@@H](Cc1ccc(O)cc1)C(=O)O [Tyrosine]
k1O2 × 10^−7 M^−1s^−1 [1]: 0.8 × 10^−7 M^−1s^−1

Compound: CSCC[C@H](N)C(=O)O [Methionine]
k1O2 × 10^−7 M^−1s^−1 [1]: 1.6 × 10^−7 M^−1s^−1

diffusion coefficient without the binding effect, Dab (cornea [2]): 134 μm^2/s
drug contact time at which delivered amount levels off (cornea [2]): 2 h
drug in second extract, % of the first extract (cornea [2]): 1.6-2.5%
diffusion coefficient without the binding effect, Dab (sclera [3]): 41 μm^2/s
drug in 3rd extract relative to the first extract (sclera [3]): 1-3%
drug in 4th extract relative to the first extract (sclera [3]): ≤ 1%
drug in second extract, % of the first extract (sclera [3]): 3-6%
time for the concentration to level off (sclera [3]): approximately 7.5 hours
Compound: riboflavin-5′-monophosphate [reference compound]
decrease of cross-linking efficacy (destructive tension of corneal strips) (cornea [9]): 76%
ionization in solution [5]: negatively ionized
anterior stromal depth in which almost all keratocytes undergo apoptosis (keratocytes): 300-350 μm
time to full recovery of the keratocyte population (keratocytes): 6-12 months
side-effects in the posterior globe (posterior globe): almost complete loss of the photoreceptors, the outer nuclear layer and the retinal pigment epithelium (RPE)
cross-linking rate as % of the rate without singlet oxygen quenchers (collagen gel; 10 mM sodium azide): 12±20%
modulus change during the last 10 minutes, no irradiation (collagen gel): 32±36 Pa
ΔG′ over the 30-minute period without irradiation (collagen gel): 72±136 Pa
modulus change during the 10 minutes after cessation of irradiation (collagen gel): 70±19 Pa
change of storage modulus ΔG′ over the 30-minute irradiation (collagen gel): 819±85 Pa
cross-linking rate as % of the rate without singlet oxygen quenchers (collagen gel; 20 mM ascorbic acid): −32±11%
cross-linking rate as % of the rate without singlet oxygen quenchers (collagen gel; 100 mM sodium azide): −26±23%
cross-linking rate as % of the optimal rate (0.05% riboflavin) (collagen gel; 0.12% riboflavin concentration, by interpolation): approximately 78%
cross-linking in the absence of oxygen (collagen gel; in argon): no cross-linking occurred
rate of change in storage modulus, Ġ′ (decreased by) (collagen gel; [10]): 4.8±2.3 Pa/min
rate of change in storage modulus, Ġ′ (increased by) (collagen gel; [11]): 28.0±4.7 Pa/min
